Key:
Type in all cases: cell-based
[1] = system: IL-1β; test: Whole bovine blood assay, LPS-induced IL-1β (inhibition / overstimulation); settings: drug concentration giving overstimulation (OS) of LPS-induced IL-1β, top concentration 250 μM
Protocol: Whole Blood Assay-Fresh whole bovine blood samples were collected into heparinized vacutainer tubes. Assay plates were prepared with 25 μL of drug diluted in PBS at varying concentration in 96 round bottom wells, then 225 μL of blood was added and plates incubated at 37° C. for 4 hours. Cells were stimulated with LPS (or PBS for controls) by adding 25 μL to the plates at a final concentration of 1 μg/mL and incubated at 37° C. for 18 hours. To collect plasma, plates were centrifuged at 2,000×g for 10 minutes and 100 μL of supernatant was transferred to a 96 well polypropylene plate that was sealed and stored at −80° C. Samples were assayed for cytokines using the Meso Scale Discovery (MSD) platform (described below). This same MSD platform was used to assess cytokines in the plasma collected directly from drug treated animals.
Cytokine Detection—An MSD U-Plex cytokine assay was developed following the MSD U-Plex protocol guide and included biotinylated capture antibodies against: bovine Interleukin (IL)-1β (Biorad), bovine IL-6 (R&D Systems) and bovine tumor necrosis factor (TNF)-α (R&D Systems). The anti-IL-1β antibody was biotinylated using EZ-Link Sulfo-NHS-Biotin (Thermo Scientific) at a challenge ratio of 1:20 according to manufacturer instructions. Assay calibrators (Kingfisher) were diluted to a concentration of […] in control lithium heparin plasma, followed by 4-fold serial dilutions into plasma. The detection antibodies were sulfo-tagged following the MSD quick guide conjugation protocol using a challenge ratio of 1:20. Antibodies were used at the following concentrations: anti-IL-1β at 1 μg/mL, anti-IL-6 at 1 μg/mL and anti-TNF-α at 0.5 μg/mL. Cytokines were quantified according to manufacturer's instructions using a chemiluminescent readout. In brief, 0.5 mL of all biotinylated antibodies were diluted to 10 μg/mL with Diluent 100 and paired to their respective linkers by adding 750 μL of supplied Linker solution and incubated for 30 minutes followed by addition of Stop solution for another 30 minutes. The linked antibodies were then diluted 10-fold into Stop solution. Plates were coated by adding 50 μL of antibody solutions per well and incubated covered and shaking for 1 hour at room temperature. Plates were washed three times with PBS/Tween20 prior to samples or standards being added at 30 μL per well and incubated as above. Plates were washed three times before detection antibodies were added along with 2% goat and rabbit serum to block and incubated same as above. Plates were washed a further three times before addition of 150 μL 2X Read buffer and read immediately on the SI6000 instrument (MSD). For soluble protein levels, a BCA protein kit (Thermofisher) was used. The cytokine concentrations (pg/mL) were normalized to the total protein levels for each sample. [Bassel et. al., BMC Veterinary Research (2020) 16:168]
Therefore, a fresh whole bovine blood assay was developed with LPS as a stimulant (TLR-4 agonist) and with IL-1β and TNF-α as the read-out. Compounds of the invention were evaluated against a positive control for their ability to inhibit LPS-induced IL-1β and TNF-α as an overall evaluation of relative potency and modulation of target pathways.
For M9, the top dose of 500 μM was not high enough to determine an overstimulation of IL-1 B which was recorded as not applicable (n/a). The enhanced response indicates increased concentration of IL-1β cytokine at the drug concentration indicated. This is generally observed when compounds are out of range (high concentration) and stimulate a cellular toxicity signal. Further data supporting this hypothesis includes murine studies using a P. multocida infection in mice.
TNFα is a cell signaling protein, cytokine, that plays a key role in both acute and chronic inflammation. […]

[2] = system: IL-6; test: Whole bovine blood assay, LPS-induced IL-6; settings: fresh whole bovine blood, LPS stimulant; top drug concentration 250 μM
[3] = system: TNF-α; test: Whole bovine blood assay, LPS-induced TNF-α; settings: fresh whole bovine blood, LPS stimulant; top drug concentration 250 μM
How it was run: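 Fresh heparinized bovine whole blood was preincubated with compound 4 h at 37 °C, then stimulated with LPS (final 1 μg/mL) for 18 h at 37 °C. Plasma TNF-α was quantified by MSD U-Plex chemiluminescent immunoassay, normalized to total protein (BCA), and IC50 taken for LPS-induced TNF-α inhibition.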

Compound	IC50 [2]	IC50 [3]	minimal effective concentration [1]
CC[C@H]1OC(=O)[C@H](C)[C@@H](O)[C@H](C)[C@@H](O[C@@H]2O[C@H](C)C[C@H](N(C)S(=O)(=O)C3CC3)[C@H]2Oc2ccccc2)[C@](C)(O)C[C@@H](C)CN[C@H](C)[C@@H](O)[C@]1(C)O [Example A-32]	167 µM		100 µM
CCCNC[C@]1(O)[C@H](C)O[C@@H](O[C@H]2[C@H](C)[C@@H](O[C@@H]3O[C@H](C)C[C@H](N(C)S(=O)(=O)c4cnn(-c5ccc(C(F)(F)F)cn5)c4)[C@H]3Oc3ccc(OC)cc3)[C@](C)(O)C[C@@H](C)CN[C@H](C)[C@@H](O)[C@](C)(O)[C@@H](CC)OC(=O)[C@@H]2C)C[C@@]1(C)OC [Example B-123]	4 µM		6 µM
CCCNC[C@]1(O)[C@H](C)O[C@@H](O[C@H]2[C@H](C)[C@@H](O[C@@H]3O[C@H](C)C[C@H](N(C)S(=O)(=O)c4ccc(C#N)cc4)[C@H]3O)[C@](C)(O)C[C@@H](C)CN[C@H](C)[C@@H](O)[C@](C)(O)[C@@H](CC)OC(=O)[C@@H]2C)C[C@@]1(C)OC [Example B-13]		> 250 µM	100 µM
CC[C@H]1OC(=O)[C@H](C)[C@@H](O[C@H]2C[C@@](C)(OC)[C@](O)(CNCCC3CCOCC3)[C@H](C)O2)[C@H](C)[C@@H](O[C@@H]2O[C@H](C)C[C@H](N(C)S(=O)(=O)c3ccc(Cl)cc3)[C@H]2O)[C@](C)(O)C[C@@H](C)CN[C@H](C)[C@@H](O)[C@]1(C)O [Example B-34]	20 µM		6 µM
CCCNC[C@]1(O)[C@H](C)O[C@@H](O[C@H]2[C@H](C)[C@@H](O[C@@H]3O[C@H](C)C[C@H](N(C)S(=O)(=O)c4cn(C)cn4)[C@H]3O)[C@](C)(O)C[C@@H](C)CN[C@H](C)[C@@H](O)[C@](C)(O)[C@@H](CC)OC(=O)[C@@H]2C)C[C@@]1(C)OC [Example B-16]		> 250 µM	>250 µM
CCCNC[C@]1(O)[C@H](C)O[C@@H](O[C@H]2[C@H](C)[C@@H](O[C@@H]3O[C@H](C)C[C@H](N(C)S(=O)(=O)CC4CC4)[C@H]3O)[C@](C)(O)C[C@@H](C)CN[C@H](C)[C@@H](O)[C@](C)(O)[C@@H](CC)OC(=O)[C@@H]2C)C[C@@]1(C)OC [Example B-10]		33 µM	15 µM
CCCNC[C@]1(O)[C@H](C)O[C@@H](O[C@H]2[C@H](C)[C@@H](O[C@@H]3O[C@H](C)C[C@H](N(C)S(=O)(=O)c4cn(C)c(C)n4)[C@H]3O)[C@](C)(O)C[C@@H](C)CN[C@H](C)[C@@H](O)[C@](C)(O)[C@@H](CC)OC(=O)[C@@H]2C)C[C@@]1(C)OC [Example B-5]		> 250 µM	>250 µM
CC[C@H]1OC(=O)[C@H](C)[C@@H](O[C@H]2C[C@@](C)(OC)[C@](O)(CNCCS(C)(=O)=O)[C@H](C)O2)[C@H](C)[C@@H](O[C@@H]2O[C@H](C)C[C@H](N(C)S(=O)(=O)c3ccc(C(F)(F)F)cc3)[C@H]2O)[C@](C)(O)C[C@@H](C)CN[C@H](C)[C@@H](O)[C@]1(C)O [Example B-126]		68 µM	11 µM
CCCNC[C@]1(O)[C@H](C)O[C@@H](O[C@H]2[C@H](C)[C@@H](O[C@@H]3O[C@H](C)C[C@H](N(C)S(N)(=O)=O)[C@H]3O)[C@](C)(O)C[C@@H](C)CN(CCC)[C@H](C)[C@@H](O)[C@](C)(O)[C@@H](CC)OC(=O)[C@@H]2C)C[C@@]1(C)OC [Example B-158]		102 µM	>250 µM

The remaining compounds from weak to strong by IC50 [3], led by results:

IC50 [2]	IC50 [3]	Compound	minimal effective concentration [1]
	31 µM	CC[C@H]1OC(=O)[C@H](C)[C@@H](O[C@H]2C[C@@](C)(OC)[C@](O)(CNCCCN3CCCCC3)[C@H](C)O2)[C@H](C)[C@@H](O[C@@H]2O[C@H](C)C[C@H](N(C)S(=O)(=O)Nc3ccc(C(F)(F)F)cc3)[C@H]2O)[C@](C)(O)C[C@@H](C)CN[C@H](C)[C@@H](O)[C@]1(C)O [Example B-75]	>250 µM
	30 µM	CCCNC[C@]1(O)[C@H](C)O[C@@H](O[C@H]2[C@H](C)[C@@H](O[C@@H]3O[C@H](C)C[C@H](N(C)S(=O)(=O)c4ccc(-n5cccn5)cc4)[C@H]3O)[C@](C)(O)C[C@@H](C)CN[C@H](C)[C@@H](O)[C@](C)(O)[C@@H](CC)OC(=O)[C@@H]2C)C[C@@]1(C)OC [Example B-19]	16 µM
	29 µM	CC[C@H]1OC(=O)[C@H](C)[C@@H](O[C@H]2C[C@@](C)(OC)[C@](O)(CNCCOC)[C@H](C)O2)[C@H](C)[C@@H](O[C@@H]2O[C@H](C)C[C@H](N(C)S(=O)(=O)c3ccc(Cl)cc3)[C@H]2O)[C@](C)(O)C[C@@H](C)CN[C@H](C)[C@@H](O)[C@]1(C)O [Example B-36]	16 µM
	28 µM	CC[C@H]1OC(=O)[C@H](C)[C@@H](O)[C@H](C)[C@@H](O[C@@H]2O[C@H](C)C[C@H](N(C)S(=O)(=O)c3ccccc3)[C@H]2Oc2ccc(F)c(C(F)(F)F)c2)[C@](C)(O)C[C@@H](C)CN(C)[C@H](C)[C@@H](O)[C@]1(C)O [Example A-2]	40 µM
	25 µM	CCCNC[C@]1(O)[C@H](C)O[C@@H](O[C@H]2[C@H](C)[C@@H](O[C@@H]3O[C@H](C)C[C@H](N(C)S(=O)(=O)c4ccccc4)[C@H]3O)[C@](C)(O)C[C@@H](C)CN[C@H](C)[C@@H](O)[C@](C)(O)[C@@H](CC)OC(=O)[C@@H]2C)C[C@@]1(C)OC [Example B-7]	40 µM
	24 µM	CCCNC[C@]1(O)[C@H](C)O[C@@H](O[C@H]2[C@H](C)[C@@H](O[C@@H]3O[C@H](C)C[C@H](N(C)S(=O)(=O)c4ccc(F)nc4)[C@H]3O)[C@](C)(O)C[C@@H](C)CN[C@H](C)[C@@H](O)[C@](C)(O)[C@@H](CC)OC(=O)[C@@H]2C)C[C@@]1(C)OC [Example B-6]	16 µM
	23 µM	CCCN1C[C@H](C)C[C@@](C)(O)[C@H](O[C@@H]2O[C@H](C)C[C@H](N(C)S(N)(=O)=O)[C@H]2O)[C@@H](C)[C@H](O[C@H]2C[C@@](C)(OC)[C@](O)(CN3CCCCC3)[C@H](C)O2)[C@@H](C)C(=O)O[C@H](CC)[C@@](C)(O)[C@H](O)[C@H]1C [Example C-17]	250 µM
	22 µM	CC[C@H]1OC(=O)[C@H](C)[C@@H](O)[C@H](C)[C@@H](O[C@@H]2O[C@H](C)C[C@H](N(C)S(=O)(=O)c3ccccc3)[C@H]2Oc2ccc(OC)cc2)[C@](C)(O)C[C@@H](C)CN(C)[C@H](C)[C@@H](O)[C@]1(C)O [Example A-1]	16 µM
	15 µM	CC[C@H]1OC(=O)[C@H](C)[C@@H](O[C@H]2C[C@@](C)(OC)[C@](O)(CN3CCCCC3)[C@H](C)O2)[C@H](C)[C@@H](O[C@@H]2O[C@H](C)C[C@H](N(Cc3cccnc3)S(=O)(=O)Nc3ccc(C(F)(F)F)cc3)[C@H]2O)[C@](C)(O)C[C@@H](C)CN[C@H](C)[C@@H](O)[C@]1(C)O [Example C-39]	6 µM
	10 µM	CC[C@H]1OC(=O)[C@H](C)[C@@H](O)[C@H](C)[C@@H](O[C@H]2O[C@@H](C)C[C@@H](N(C)S(=O)(=O)Nc3ccccc3)[C@@H]2Oc2ccccc2)[C@](C)(O)C[C@@H](C)CN[C@H](C)[C@@H](O)[C@]1(C)O [Example A-4]	4 µM

— patent US20250236616A1, “IMMUNOMODULATING AZALIDES” (Zoetis Services LLC, priority 2021, published 2025)
